{
  "source": "patent US10137084B2",
  "about": "“Use of bethanechol for treatment of xerostomia” (priority 2009, dated 2018)",
  "key": {"male Sprague-Dawley rats": {"test_system": "male Sprague-Dawley rats", "assay": "efficacy study: saliva production after topical instillation into the oral cavity of anaesthetised rats", "assay_type": "in vivo, rat", "settings": "saturated solution", "method": "In the experiments outlined below, bethanechol chloride for buccal administration was prepared as a saturated solution in a solvent mixture comprising PEG 400, glycerol, ethanol and sodium phosphate buffer. Specific solvent amounts were 30% PEG 400, 30% glycerol, 20% ethanol with 20% phosphate buffer (formed by mixing 50 ml of 0.1M sodium phosphate monobasic (monohydrate) with sufficient 0.1M sodium phosphate dibasic (heptahydrate) until a pH of 5.5 was achieved). Bethanechol chloride was present at up to 33%.\nIn order to prepare a saturated solution of bethanechol chloride the following method was used. A magnetic flea was placed into a 20 ml scintillation vial and the weight of both was recorded. Exactly 0.8 g of the pH 5.5 buffer solution was placed into the container. […] Once the saturated solution (containing un-dissolved bethanechol) had been achieved, the vial was placed onto a balance and the total weight recorded. […] The amounts of ethanol, glycerol and PEG 400 were calculated to make a solution containing 30% PEG 400, 30% glycerol, 20% ethanol and 20% buffer and bethanechol. […]\nSaliva production data were analysed by repeated measures two-way ANOVA followed by Bonferronis post tests (GraphPad Prism version 5.0, GraphPad Software, San Diego, Calif., USA). […]"}, "rats [1]": {"test_system": "rats", "assay": "cardiovascular and respiratory parameters after application to the buccal cavity of anaesthetised rats", "assay_type": "in vivo, rat", "text": "(§1) In separate experiments, the effects of bethanechol (saturated solution, see above) were compared with those of physostigmine (1% solution in saline) on cardiovascular and respiratory parameters when applied to the buccal cavity of rats. Anaesthesia was induced in animals with urethane (1.75 g/kg given i.p.). Each animal was artificially ventilated via a tracheal cannula that was connected to a Fleisch (size 00) pneumotachograph and a pressure transducer (pressure range ±2 cm H2O). […] The left carotid artery was cannulated for recording blood pressure and heart rate, and the left jugular vein cannulated for drug administration. For topical administration, after 15-30 minutes a Parafilm ball was inserted into the back of the oral cavity to prevent the loss of solution into the oesophagus and airways. At T−10 minutes a cotton wool ball was inserted into the oral cavity and 10 minutes later it was removed and excess saliva wiped away. At T=O minutes physostigmine (1%, 10 microliters each on left and right sides) or bethanechol (10 microliters each on left and right sides) were instilled using a pipette. At T=10 minutes, another cotton wool ball was inserted into the oral cavity, 10 min later, it was removed and the excess saliva wiped away. The effects on baseline cardiovascular and respiratory parameters were recorded over 90 minutes. Physostigmine produced changes in all measured parameters, the mean maximum effects seen during the observation period were for pulmonary inflation pressure 44% increase, mean arterial pressure 17% decrease and heart rate 9.3% decrease (all n=2). In contrast, bethanechol produced minimal (and not significant) effects on any of these parameters, the mean maximum changes being 0% change, 3% decrease and 1% decrease for pulmonary inflation pressure, mean arterial pressure and heart rate respectively (n=3)."}, "rats [2]": {"test_system": "rats", "assay": "cardiovascular and respiratory effects after intravenous administration in rats", "assay_type": "in vivo, rat", "settings": "n=3", "text": "as §1\nFor an additional comparison, the effects of bethanechol (prepared in saline, dosing volume 0.1 ml) over a dose range of 0.3 micrograms/kg to 300 micrograms/kg administered intravenously were studied in rats. Doses were administered in ascending order to each animal (n=3) and cardiovascular and respiratory effects monitored over 5 minutes or until the recorded parameter had returned to baseline (whichever was the later). […] The effects observed with bethanechol at 300 micrograms/kg were mean arterial pressure 72% decrease, heart rate 69% decrease and pulmonary inflation pressure 30% increase."}, "patients with xerostomia": {"test_system": "patients with xerostomia", "assay": "clinical study in patients with xerostomia, buccal solution versus placebo", "assay_type": "in vivo, human", "settings": "approximately 0.5 ml solution retained against the buccal mucosa for 1 to 2 minutes and then swallowed, crossover versus placebo", "method": "A cohort of approximately 20 patients with xerostomia is randomised to receive either placebo or bethanechol formulation or vice versa with at least 3 days washout between the treatment segments. Each treatment is given as a small volume (approximately 0.5 ml) solution to be retained against the buccal mucosa for 1 to 2 minutes and then swallowed. Clinical investigations include vital signs, haematology/chemistry and appearance of the buccal mucosa. Efficacy measurements include salivary flow and composition of major and minor glands using standard techniques (see e.g. Ferguson 1999, Archives of Oral Biol., 44:S11-S14; Boros et al., Archives of Oral Biol., 44:S59-S62) and the assessment of subjective oral dryness/comfort using validated measures (see e.g. Chainani-Wu et al., 2006, Spec. Care Dentist 26(4):164-170)."}, "[3]": {"settings": "buccal, 10 microliters each on left and right sides, recorded over 90 minutes, physostigmine 1% (n=2), bethanechol saturated solution (n=3)"}},
  "data": [
    {"smiles": "CC(C[N+](C)(C)C)OC(N)=O", "note": "(stereo not shown) [bethanechol, Bethanechol chloride]", "values": [
      {"measurement": "salivary output", "setting": "male Sprague-Dawley rats; applied topically, for up to 70 minutes", "value": "sustained and significant increase"},
      {"measurement": "increase of total saliva production above vehicle effect", "setting": "male Sprague-Dawley rats; 10 microliters on each side of the mouth, 70 minute collection period, P less than 0.01, n=4", "value": 72, "unit": "%"},
      {"measurement": "heart rate, mean maximum effect (decrease)", "setting": "rats [1]; rat, in vivo", "value": 1, "unit": "%"},
      {"measurement": "mean arterial pressure, mean maximum effect (decrease)", "setting": "rats [1]; rat, in vivo", "value": 3, "unit": "%"},
      {"measurement": "pulmonary inflation pressure, mean maximum effect (increase)", "setting": "rats [1]; rat, in vivo", "value": 0, "unit": "%"},
      {"measurement": "heart rate decrease", "setting": "rats [2]; 0.3 micrograms/kg, in saline", "value": 6, "unit": "%"},
      {"measurement": "mean arterial pressure decrease", "setting": "rats [2]; 0.3 micrograms/kg, in saline", "value": 31, "unit": "%"},
      {"measurement": "heart rate decrease", "setting": "rats [2]; 300 micrograms/kg, in saline", "value": 69, "unit": "%"},
      {"measurement": "mean arterial pressure decrease", "setting": "rats [2]; 300 micrograms/kg, in saline", "value": 72, "unit": "%"},
      {"measurement": "pulmonary inflation pressure increase", "setting": "rats [2]; 300 micrograms/kg, in saline", "value": 30, "unit": "%"},
      {"measurement": "dose at which increases in pulmonary inflation pressure were seen", "setting": "rats [2]; ascending doses 0.3 to 300 micrograms/kg", "value": "≥ 3", "unit": "micrograms/kg"},
      {"measurement": "salivary flows", "setting": "patients with xerostomia", "value": "increase salivary flows"},
      {"measurement": "subjective oral dryness/comfort scores", "setting": "patients with xerostomia", "value": "improve subjective oral dryness/comfort scores"}
    ]},
    {"smiles": "CNC(=O)Oc1ccc2c(c1)[C@]1(C)CCN(C)[C@@H]1N2C", "note": "[physostigmine]", "values": [
      {"measurement": "heart rate, mean maximum effect (decrease)", "setting": "rats [1]; [3]", "value": 9.3, "unit": "%"},
      {"measurement": "mean arterial pressure, mean maximum effect (decrease)", "setting": "rats [1]; [3]", "value": 17, "unit": "%"},
      {"measurement": "pulmonary inflation pressure, mean maximum effect (increase)", "setting": "rats [1]; [3]", "value": 44, "unit": "%"}
    ]}
  ]
}
